Measured values reported in patent publication US8658826B2, “Amino acid derivatives used as pharmaceutical substances” (Dritte Patentportfolio Beteiligungsgesellschaft mgH & Co. KG, priority 2008, dated 2014).

Assay: oral bioavailability study with rats: benzamidine plasma levels after oral valbenzamidoxime
Format: in vivo, rat
Settings: oral 50 mg/kg
Experimental: For proving the resorption from the gastrointestinal tract and the subsequent reduction to benzamidine, the valbenamidoxime is orally administered to three rats. The metabolization of the ester into benzamidine in this case takes place in vivo as follows:
The anaesthesia was carried out using xylazine and ketamine. Both were administered by intramuscular injection. The silicone catheters were implanted in the vena jugularis and the arteria carotis. They have locally antithrombotic and anti-inflammatory properties, but are not systemically active. During the surgery, the eyes were protected with a cornea-protective ointment (Oculotect®), and 3-4 ml of Ringer lactate solution was applied subcutaneously for improving the postoperative energy supply. The animals were treated antiphlogistically (Finadyne®, 1 mg/kg of body weight) and antibiotically (Amoxicillin® 15%, 10 mg/kg of body weight) and postoperatively attended and kept warm until they woke up. The day after the surgery, the animals got Nutri Plus®, an energy paste (soy bean oil, molasses, cod-liver oil, meat extract, mineral premixture, vitamin premixture).
Male Wistar rats having an average weight of 200 g served as the test animals. The animals were kept individually in cages. Every second day they got concentrated food. […]
For separating the substances to be analyzed, the following HPLC method was used: […]

Which “resorption of the prodrug after oral administration and metabolization into benzamidine” value does the source give for CC(C)C(N)C(=O)O/N=C(\N)c1ccccc1 (stereo not shown) [valbenzamidoxime] here?
The value was “completely resorbed after oral administration and metabolized into the active form benzamidine”.
